Laboratory results as given in US20030129134A1, “Method of monitoring neuroprotective treatment” (Pfizer Inc., priority 2001, published 2003).

Tested on: S-100b
Experiment: Serum S-100b levels in patients with severe contusive-type head trauma treated by constant infusion
Assay type: in vivo, human
Conditions: constant infusion for 72 hours, serum samples out to 120 hours post-infusion, luminometric immunoassay
Text: Levels of S-100b can be measured in a biological sample of a patient's blood or CSF using a commercially available immunoradiometric assay or luminometric immunoassay kit such as those available from Byk-Sangtec Diagnostica GmbH & Co. (Dietzenbach, Germany), which are based on a two-site immunoluminometric sandwich assay using the commercially available LIAISON® Sangtec® S-100 assay system. In this assay system, paramagnetic particles are coated with two anti-S100b monoclonal antibodies directed to different epitopes, and a secondary anti-S100b monoclonal antibody labeled with an isoluminol derivative is provided as detection antibody. The paramagnetic particles, assay buffer, and biological sample are first incubated and unbound material is removed by a wash cycle. […] Subsequently, starter reagents that activate the chemoluminscent reaction are added and the S-100b concentration is determined via the chemiluminescence reaction induced by the previously added reagents. The light signal is measured in relative light units (RLUs) and is directly proportional to the amount of S-100b protein in the sample. […]
S-100b levels were measured in the serum of patients suffering from severe contusive-type head trauma. […] S-100b levels were determined using a commercially available luminometric immunoassay kit from Byk-Sangtec Diagnostica GmbH & Co. (Dietzenbach, Germany).

## C[C@@H]([C@@H](O)c1ccc(O)cc1)N1CCC(O)(c2ccccc2)CC1 [CP-101,606, (1S,2S)-1-(4-hydroxyphenyl)-2-(4-hydroxy-4-phenylpiperidin-1-yl)-1-propanol]
  S-100b levels in serum compared to the placebo group: significantly reduced
